Laboratory results published in ChEMBL document CHEMBL3611975, “New carbocyclic N(6)-substituted adenine and pyrimidine nucleoside analogues with a bicyclo[2.2.1]heptane fragment as sugar moiety; synthesis, antiviral, anticancer activity and X-ray crystallography” (Bioorg Med Chem, 2015).

How the values were obtained:
[1] = Selectivity index, ratio of CTD50 for MDCK cells to EC50 for Influenza A virus (A/Puerto Rico/8/1934(H1N1)); assay type: toxicity, cell-based; settings: dog
[2] = Cytotoxicity against African green monkey Vero cells assessed as cell viability after 72 hrs by MTT assay; assay type: cell-based; settings: chlorocebus sabaeus, read-out: CTD50
[3] = Selectivity index, ratio of CTD50 for African green monkey Vero cells to EC50 for Human coxsackievirus B4 Powers; assay type: toxicity, cell-based
[4] = Cytotoxicity against MDCK cells assessed as cell viability after 48 hrs by MTT assay; assay type: cell-based, Canis lupus familiaris; settings: dog, read-out: CTD50
[5] = test system: Coxsackievirus B4; experiment: Antiviral activity against Human coxsackievirus B4 Powers infected in African green monkey Vero cells assessed as decrease in virus titer after 72 hrs by MTT assay; assay type: functional, organism-based; settings: Enterovirus B
[6] = test system: Influenza A virus; experiment: Antiviral activity against Influenza A virus (A/Puerto Rico/8/1934(H1N1)) infected in MDCK cells assessed as decrease in virus titer after 48 hrs by MTT assay; assay type: functional, organism-based

## Nc1ncnc2c1ncn2[C@H]1C[C@H]2[C@H](CO)[C@@H]1C[C@@H]2Cl
[1]
  selectivity ratio: > 150
[2]
  CC50 at 72 h: 332 µM
[3]
  selectivity ratio: 3
[4]
  CC50 at 48 h: > 1120 µM
[5]
  EC50: > 112 µM
[6]
  EC50: 8 µM

## CN(C)c1ncnc2c1ncn2[C@H]1C[C@H]2[C@H](CO)[C@@H]1C[C@@H]2Cl
[1]
  selectivity ratio: 8
[2]
  CC50 at 72 h: 235 µM
[3]
  selectivity ratio: 9
[4]
  CC50 at 48 h: 929 µM
[5]
  EC50: 28 µM
[6]
  EC50: 112 µM

## OC[C@H]1[C@@H]2C[C@H](n3cnc4c(NC5CC5)ncnc43)[C@H]1C[C@@H]2Cl
[1]
  selectivity ratio: 151
[2]
  CC50 at 72 h: 247 µM
[3]
  selectivity ratio: 15
[4]
  CC50 at 48 h: 1130 µM
[5]
  EC50: 17 µM
[6]
  EC50: 8 µM

## OC[C@H]1[C@@H]2C[C@H](n3cnc4c(NC5CCCC5)ncnc43)[C@H]1C[C@@H]2Cl
[1]
  selectivity ratio: 36
[2]
  CC50 at 72 h: 27 µM
[3]
  selectivity ratio: 1
[4]
  CC50 at 48 h: 529 µM
[5]
  EC50: > 30 µM
[6]
  EC50: 15 µM

## CCN(CC)CCCNc1ncnc2c1ncn2[C@H]1C[C@H]2[C@H](CO)[C@@H]1C[C@@H]2Cl
[1]
  selectivity ratio: < 3
[2]
  CC50 at 72 h: 137 µM
[3]
  selectivity ratio: 2
[4]
  CC50 at 48 h: 664 µM
[5]
  EC50: > 81 µM
[6]
  EC50: > 245 µM

## CN1CCN(c2ncnc3c2ncn3[C@H]2C[C@H]3[C@H](CO)[C@@H]2C[C@@H]3Cl)CC1
[1]
  selectivity ratio: 39
[2]
  CC50 at 72 h: 227 µM
[3]
  selectivity ratio: 3
[4]
  CC50 at 48 h: 1000 µM
[5]
  EC50: > 87 µM
[6]
  EC50: 25 µM

## OC[C@H]1[C@@H]2C[C@H](n3cnc4c(N5CCOCC5)ncnc43)[C@H]1C[C@@H]2Cl
[1]
  selectivity ratio: 54
[2]
  CC50 at 72 h: 97 µM
[3]
  selectivity ratio: 1
[4]
  CC50 at 48 h: 997 µM
[5]
  EC50: > 90 µM
[6]
  EC50: 19 µM

## OC[C@H]1[C@@H]2C[C@H](n3cnc4c(NC5CCCCC5)ncnc43)[C@H]1C[C@@H]2Cl
[1]
  selectivity ratio: 6
[2]
  CC50 at 72 h: 14 µM
[3]
  selectivity ratio: 1
[4]
  CC50 at 48 h: 528 µM
[5]
  EC50: > 11 µM
[6]
  EC50: 91 µM

## CCN(CC)CCNc1ncnc2c1ncn2[C@H]1C[C@H]2[C@H](CO)[C@@H]1C[C@@H]2Cl
[1]
  selectivity ratio: 36
[2]
  CC50 at 72 h: 175 µM
[3]
  selectivity ratio: 2
[4]
  CC50 at 48 h: 731 µM
[5]
  EC50: > 84 µM
[6]
  EC50: 20 µM

## OC[C@H]1[C@@H]2C[C@H](n3cnc4c(NCCc5ccc(O)cc5)ncnc43)[C@H]1C[C@@H]2Cl
[1]
  selectivity ratio: > 16
[2]
  CC50 at 72 h: 108 µM
[3]
  selectivity ratio: 6
[4]
  CC50 at 48 h: > 795 µM
[5]
  EC50: 18 µM
[6]
  EC50: 48 µM

## OC[C@@H](Cc1ccccc1)Nc1ncnc2c1ncn2[C@H]1C[C@H]2[C@H](CO)[C@@H]1C[C@@H]2Cl
[1]
  selectivity ratio: 3
[2]
  CC50 at 72 h: 197 µM
[3]
  selectivity ratio: 141
[4]
  CC50 at 48 h: 410 µM
[5]
  EC50: 1 µM
[6]
  EC50: 131 µM

## OC[C@H]1[C@@H]2C[C@H](n3cnc4c(NCc5cccnc5)ncnc43)[C@H]1C[C@@H]2Cl
[1]
  selectivity ratio: 5
[2]
  CC50 at 72 h: 204 µM
[3]
  selectivity ratio: 2
[4]
  CC50 at 48 h: 554 µM
[5]
  EC50: > 86 µM
[6]
  EC50: 122 µM

## OC[C@H]1[C@@H]2C[C@H](n3cnc4c(NCc5ccncc5)ncnc43)[C@H]1C[C@@H]2Cl
[1]
  selectivity ratio: 3
[2]
  CC50 at 72 h: 166 µM
[3]
  selectivity ratio: 2
[4]
  CC50 at 48 h: 712 µM
[5]
  EC50: > 84 µM
[6]
  EC50: 250 µM

## CN1CCN(Nc2ncnc3c2ncn3[C@H]2C[C@H]3[C@H](CO)[C@@H]2C[C@@H]3Cl)CC1
[1]
  selectivity ratio: 73
[2]
  CC50 at 72 h: 255 µM
[3]
  selectivity ratio: 1
[4]
  CC50 at 48 h: 840 µM
[5]
  EC50: > 255 µM
[6]
  EC50: 12 µM

## CCN(CC)c1ncnc2c1ncn2[C@H]1C[C@H]2[C@H](CO)[C@@H]1C[C@@H]2Cl
[1]
  selectivity ratio: 18
[2]
  CC50 at 72 h: 182 µM
[3]
  selectivity ratio: 2
[4]
  CC50 at 48 h: 385 µM
[5]
  EC50: > 94 µM
[6]
  EC50: 22 µM

## OC[C@@H]1[C@@H]2C[C@H](Cl)[C@H]1C[C@@H]2Nc1ncnc2c1ncn2[C@H]1C[C@H]2[C@H](CO)[C@@H]1C[C@@H]2Cl
[1]
  selectivity ratio: > 73
[2]
  CC50 at 72 h: 213 µM
[3]
  selectivity ratio: 3
[4]
  CC50 at 48 h: > 704 µM
[5]
  EC50: 61 µM
[6]
  EC50: 10 µM

## Cc1cn([C@H]2C[C@H]3[C@H](CO)[C@@H]2C[C@@H]3Cl)c(=O)[nH]c1=O
[1]
  selectivity ratio: > 3
[2]
  CC50 at 72 h: 57 µM
[3]
  selectivity ratio: 1
[4]
  CC50 at 48 h: > 1160 µM
[5]
  EC50: > 352 µM
[6]
  EC50: 352 µM

## O=c1ccn([C@H]2C[C@H]3[C@H](CO)[C@@H]2C[C@@H]3Cl)c(=O)[nH]1
[1]
  selectivity ratio: > 19
[2]
  CC50 at 72 h: 172 µM
[3]
  selectivity ratio: 1
[4]
  CC50 at 48 h: > 1210 µM
[5]
  EC50: > 367 µM
[6]
  EC50: 64 µM
